Assay results from patent publication US20160287601A1, “ENHANCED TREATMENT REGIMENS USING PI3K INHIBITORS” (MILLENNIUM PHARMACEUTICALS, INC., priority 2013, published 2016).

What was measured:
[1] = system: T47D (PIK3CA mutant, ER/PR+) human breast cancer xenografts; experiment: Antitumor activity alone and in combination with fulvestrant in T47-D xenografts; assay type: in vivo, NOD-SCID mice; details: Compound A 70 mg/kg PO QD x 3/wk x 3, Fulvestrant 100 mg/kg SC QW x 3; for TGI (tumor growth inhibition): Day 21 post treatment initiation; for ΔAUC (change in area under the tumor volume-versus-time curves): versus vehicle, 21 day treatment
Text: The control used in this study was 100% PEG400+0.9% Saline. Fulvestrant was formulated in 0.9% saline.
Prior to injection, the cells were detached with Trypsin (Invitrogen), washed twice with phosphate buffered saline (PBS), and resuspended in RPMI (Roswell Park Memorial Institute) media (Invitrogen,) without supplements. Cells were resuspended to a final concentration of 10.0×10^7 cells/ml in DPBS and mixed with 50% Matrigel (BD Biosciences) at 1 to 1 volume. T47-D cells (10.0×10^6 cells/animal in 02-mL injection volume) were implanted S.C. into the right flank of NOD-SCID mice (Harlain Laboratories).
Four-six week old female NOD-SCID mice were inoculated SC in flank (cell suspension in DPBS and 50% Matrigel) with 10.0×10^6 T47-D cells. Tumor growth was monitored with vernier calipers. The mean TV (MTV) was calculated using the formula V=W2×L/2.
The percentage of tumor growth inhibition (TGI) and percent body weight (BW) change were determined on Day 21 and provided in Table 6. Statistical comparisons of tumor growth between the treatment and vehicle groups were conducted using a linear mixed effects regression analysis on the change in area under the tumor volume (TV)-versus—time curves (ΔAUC) values. All p values less than 0.05 were considered significant.
A combination score calculation was used to address the question of whether the effects of the combination treatments were synergistic, additive, subadditive, or antagonistic relative to the individual treatments. The effect was considered synergistic if the synergy score was less than 0, and additive if the synergy score wasn't statistically different from 0.

[2] = Phase 1 clinical study, safety and tolerability (MTD, AEs grade 3 or higher) in patients with advanced solid malignancies; assay type: in vivo
Text: A phase 1 clinical study was initiated to evaluate the safety, tolerability, PK, pharmacodynamics; to determine the maximum tolerated dose (MTD) in each of 3 schedules described below; and to evaluate antitumor activity in patients with advanced solid malignancies.
Inclusion Criteria • Subjects have had their PIK3CA gene mutation status assessed prior to enrolling into the study • Subjects must have documented disease progression prior to enrolling into the study • locally advanced or metastatic solid tumors with the exception of primary brain tumor, and have failed or are not eligible for standard of care therapy. • Age ≧18 years, including males and females; • ECOG performance status (PS) 0-1; • Adequate organ function; • Male subjects must be surgically sterile or must agree to use physician-approved contraception during the study and for 30 days following the last study drug administration; • Ability to swallow oral medications; • Ability to understand and willingness to sign informed consent prior to initiation of any study procedures; • For women of child-bearing potential, negative serum pregnancy test within 14 days prior to the first study drug administration and use of physician-approved method of birth control from 30 days prior to the first study drug administration to 30 days following the last study drug administration
35 patients were enrolled into the dose escalation phase of the study, which is designed to determine the MTD of compound A when given orally on continuous (daily) or intermittent schedules. The MTD for the QD dosing schedule was determined to be 100 mg.
Other than MTD, the other primary outcome measures is the tolerability profile of compound A or the number of adverse events (AE) from the first dose of study drug through 30 days after the last dose of study drug. Plasma levels of compound A is one of the secondary outcome measures.

[3] = system: MDA-MB-361 human breast cancer xenografts; experiment: Antitumor activity in MDA-MB-361 human breast cancer xenografts, various doses and schedules; assay type: in vivo, female athymic nude mice; details: PO
Method: Objectives of this study: to determine the in vivo antitumor activity of compound A at various doses and schedules in the MDA-MB-361 human breast cancer xenografts after oral (PO) administration in female nude mice.
Compound A was prepared according to methods disclosed in WO 2011/022439 and WO 2013/071272 and stored at approximately 25° C., shielded from light. The control used in this study was 100% PEG400.
Low passage MDA-MB-361 cells were grown in Dulbecco's Modified Eagle's Medium (DMEM) media supplemented with 20% fetal bovine serum (FBS) and 1× penicillin/streptomycin (Invitrogen [Carlsbad, Calif., USA]) until approximately 80% confluency was reached. […]
Four-five week old female athymic nude mice were inoculated SC in flank (cell suspension in serum free DMEM and 50% Matrigel) with 10.0×10^6 MDA-MB-361 cells. Tumor growth was monitored with vernier calipers. The mean TV (MTV) was calculated using the formula V=W^2×L/2.
When tumors reached a mean tumor volume (MTV) of approximately 280 mm^3, mice (n=5/group) were treated with vehicle (PEG400) or compound A (60, 70, 140, or 210 mg/kg) administered concurrently via oral gavage over a 28 day treatment period on the schedules indicated below in Table 2. The percentage of tumor growth inhibition (TGI) and percent body weight (BW) change were determined on Day 28. […]

With Nc1nc2cc(-c3ccc4ncc(C(=O)N5CCOCC5)n4c3)ccc2o1 [Compound A, (6-(2-aminobenzo[d]oxazol-5-yl)imidazo[1,2-a]pyridin-3-yl)(morpholino)methanone] the “TGI (tumor growth inhibition)” value [1] was 52.60%, the “TGI (tumor growth inhibition)” value ([1]; listed as compound A) was 52.6% and the “ΔAUC (change in area under the tumor volume-versus-time curves)” value [1] was 61.2. The “maximum tolerated dose (MTD)” value ([2]; QD (continuous daily) oral dosing schedule) was 100 mg, the “Abdominal pain, AEs grade 3 or higher” value ([2]; both, human, in vivo) was 1 (4) n (%) and the “Anaemia, AEs grade 3 or higher” value ([2]; both, human, in vivo) was 1 (5) n (%). The “Chills, AEs grade 3 or higher” value ([2]; both, human, in vivo) was 1 (6) n (%), the “Decreased appetite, AEs grade 3 or higher” value ([2]; both, human, in vivo) was 1 (6) n (%) and the “Diarrhoea, AEs grade 3 or higher” value ([2]; both, human, in vivo) was 1 (6) n (%). The “Drug-induced liver injury, AEs grade 3 or higher” value ([2]; both, human, in vivo) was 1 (4) n (%), the “Hyperglycaemia, AEs grade 3 or higher” value ([2]; both, human, in vivo) was 2 n (%) and the “Nausea, AEs grade 3 or higher” value ([2]; both, human, in vivo) was 1 (6) n (%). For the same compound, the “Oxygen saturation, AEs grade 3 or higher” value ([2]; both, human, in vivo) was 1 (6) n (%), the “Transaminases incr'd, AEs grade 3 or higher” value ([2]; both, human, in vivo) was 2 (8) n (%) and the “efficacy in reducing tumor size, intermittent regimen versus daily administration” value ([3]; 28 day treatment, total amount administered comparable in daily and intermittent schedules) was “as efficacious in reducing tumor size as daily administration”. The “relationship between efficacy (tumor growth inhibition, TGI) and exposure (AUC) between dosing schedules” value ([3]; single agent, FIG. 3) was “AUC-driven”.
For C[C@]12CC[C@@H]3c4ccc(O)cc4C[C@@H](CCCCCCCCC[S+]([O-])CCCC(F)(F)C(F)(F)F)[C@H]3[C@@H]1CC[C@@H]2O (stereo partly drawn) [Fulvestrant, (7α,17β)-7-{9-[(4,4,5,5,5-pentafluoropentyl)sulfinyl]nonyl}estra-1,3,5(10)-triene-3,17-diol, reference compound], the “TGI (tumor growth inhibition)” value [1] was 66.70% and the “ΔAUC (change in area under the tumor volume-versus-time curves)” value [1] was 108.4.
